Assay: Stability testing: contents of chlorhexidine gluconate (liquid chromatography) and isopropyl alcohol (gas chromatography) in the wet wipe, long-term experiment
Format: physicochemical
Protocol: The test was performed by chromatography. The content of chlorhexidine gluconate in the 2% chlorhexidine gluconate-isopropyl alcohol solution and the wet wipe was quantitatively detected by liquid chromatography. The content of isopropyl alcohol in the wet wipe was quantitatively detected by gas chromatography. In this test, the contents of chlorhexidine gluconate and isopropyl alcohol were used as evaluation indexes. The contents of chlorhexidine gluconate and isopropyl alcohol were measured by a long-term experiment. Relative standard deviation (RSD) was used to determine the stability of the contents of chlorhexidine gluconate and isopropyl alcohol in the chlorhexidine gluconate-isopropyl alcohol wet wipe. The contents were respectively measured at Month 0, Month 1, Month 3, Month 6, Month 9, Month 12, Month 18 and Month 24. Based on the content at Month 0 (100%), the ratio of the content at the subsequent time points to the content at Month 0 was calculated respectively, as shown in Table 1.

Row | ratio of the content to the content at Month 0 (Month 0 (set as 100%)) [%] | ratio of the content to the content at Month 0 (Month 3) [%] | ratio of the content to the content at Month 0 (Month 6) [%] | ratio of the content to the content at Month 0 (Month 9) [%] | ratio of the content to the content at Month 0 (Month 12) [%] | ratio of the content to the content at Month 0 (Month 18) [%] | ratio of the content to the content at Month 0 (Month 24) | SMILES
1 | 100 | 97.5 | 100.8 | 100 | 99.2 | 100.8 | 102.5% | CC(C)O [Isopropyl alcohol]
2 | 100 | 100 | 100 | 100 | 100 | 100 | 106.2%^ | N=C(NCCCCCCNC(=N)NC(=N)Nc1ccc(Cl)cc1)NC(=N)Nc1ccc(Cl)cc1.O=C(O)[C@H](O)[C@@H](O)[C@H](O)[C@H](O)CO.O=C(O)[C@H](O)[C@@H](O)[C@H](O)[C@H](O)CO [Chlorhexidine gluconate]
